ChEMBL document CHEMBL5584264 (Bioorg Med Chem Lett, 2024)
pKi: −log10 of the molar value. Values after ≈ are worked out from the molar mass of the structure shown.

Assays:
RAW264.7 [1] = assay: Antiinflammatory activity against LPS-induced mouse RAW264.7 cells assessed as cell viability at 10 uM by celltiter-blue cell viability assay; assay type: functional; conditions: read-out: Activity
RAW264.7 [2] = assay: Antiinflammatory activity against LPS-induced mouse RAW264.7 cells assessed as cell viability at 1 uM by celltiter-blue cell viability assay; assay type: functional; conditions: read-out: Activity
RAW264.7 [3] = assay: Antiinflammatory activity against LPS-induced mouse RAW264.7 cells assessed as reduction in nitrite level at 30 uM preincubated with compound for 1 hr followed by LPS-induction and measured after 24 hrs by Fluorometric Assay relative to control; assay type: functional; parameters: scale not given: the % may be the effect or the level left; conditions: time 25 hrs
RAW264.7 [4] = assay: Antiinflammatory activity against LPS-induced mouse RAW264.7 cells assessed as reduction in nitrite level at 10 uM preincubated with compound for 1 hr followed by LPS-induction and measured after 24 hrs by Fluorometric Assay relative to control; assay type: functional; parameters: scale not given: the % may be the effect or the level left; conditions: time 25 hrs
RAW264.7 [5] = assay: Antiinflammatory activity against LPS-induced mouse RAW264.7 cells assessed as reduction in TNF-alpha level at 10 uM preincubated with compound for 1 hr followed by LPS-induction and measured after 24 hrs by ELISA analysis relative to control; assay type: functional; parameters: scale not given: the % may be the effect or the level left; conditions: time 25 hrs
RAW264.7 [6] = assay: Antiinflammatory activity against LPS-induced mouse RAW264.7 cells assessed as reduction in TNF-alpha level at 1 uM preincubated with compound for 1 hr followed by LPS-induction and measured after 24 hrs by ELISA analysis relative to control; assay type: functional; parameters: scale not given: the % may be the effect or the level left; conditions: time 25 hrs
RAW264.7 [7] = assay: Antiinflammatory activity against LPS-induced mouse RAW264.7 cells assessed as reduction in TNF-alpha level at 30 uM preincubated with compound for 1 hr followed by LPS-induction and measured after 24 hrs by ELISA analysis relative to control; assay type: functional; parameters: scale not given: the % may be the effect or the level left; conditions: time 25 hrs
RAW264.7 [8] = assay: Antiinflammatory activity against LPS-induced mouse RAW264.7 cells assessed as reduction in IL-6 level at 30 uM preincubated with compound for 1 hr followed by LPS-induction and measured after 24 hrs by ELISA analysis relative to control; assay type: functional; parameters: scale not given: the % may be the effect or the level left; conditions: time 25 hrs
RAW264.7 [9] = assay: Antiinflammatory activity against LPS-induced mouse RAW264.7 cells assessed as reduction in nitrite level preincubated with compound for 1 hr followed by LPS-induction and measured after 24 hrs by Fluorometric Assay; assay type: functional, cell-based; conditions: dose 1-30 µM, time 25.0 hrs
RAW264.7 [10] = assay: Antiinflammatory activity against LPS-induced mouse RAW264.7 cells assessed as cell viability at 30 uM by celltiter-blue cell viability assay; assay type: functional; conditions: read-out: Activity
RAW264.7 [11] = assay: Antiinflammatory activity against LPS-induced mouse RAW264.7 cells assessed as reduction in IL-6 level at 10 uM preincubated with compound for 1 hr followed by LPS-induction and measured after 24 hrs by ELISA analysis relative to control; assay type: functional; parameters: scale not given: the % may be the effect or the level left; conditions: time 25 hrs
RAW264.7 [12] = assay: Antiinflammatory activity against LPS-induced mouse RAW264.7 cells assessed as reduction in nitrite level at 1 uM preincubated with compound for 1 hr followed by LPS-induction and measured after 24 hrs by Fluorometric Assay relative to control; assay type: functional; parameters: scale not given: the % may be the effect or the level left; conditions: time 25 hrs
RAW264.7 [13] = assay: Antiinflammatory activity against LPS-induced mouse RAW264.7 cells assessed as reduction in IL-6 level preincubated with compound for 1 hr followed by LPS-induction and measured after 24 hrs by ELISA analysis; assay type: functional, cell-based; conditions: dose 1-30 µM, time 25.0 hrs
RAW264.7 [14] = assay: Antiinflammatory activity against LPS-induced mouse RAW264.7 cells assessed as reduction in IL-6 level at 1 uM preincubated with compound for 1 hr followed by LPS-induction and measured after 24 hrs by ELISA analysis relative to control; assay type: functional; parameters: scale not given: the % may be the effect or the level left; conditions: time 25 hrs
[15] = molecular target: Protein cereblon/DNA damage-binding protein 1 (Homo sapiens) (UniProt Q96SW2+Q16531); assay: Displacement of Cy5-tagged thalidomide-like probe from human CRBN/DDB1 complex by fluorescence polarization based CRBN binding assay; assay type: protein assay
[16] = molecular target: 5-hydroxytryptamine receptor 2B (Homo sapiens, UniProt P41595); assay: Displacement of [3H]DTG from 5HT2B receptor (unknown origin) assessed as inhibition constant
[17] = molecular target: 5-hydroxytryptamine receptor 2A (Homo sapiens, UniProt P28223); assay: Displacement of [3H]DTG from 5HT2A receptor (unknown origin) assessed as inhibition constant
[18] = molecular target: Serotonin 3 (5-HT3) receptor; assay: Displacement of [3H]DTG from 5HT3 receptor (unknown origin) assessed as inhibition constant; assay type: protein-complex assay, Homo sapiens
[19] = molecular target: Sigma intracellular receptor 2 (Homo sapiens, UniProt Q5BJF2); assay: Displacement of [3H]DTG from sigma-2 receptor (unknown origin) assessed as inhibition constant
[20] = Solubility of compound in PBS at pH 7.4 by LC/MS analysis; assay type: physicochemical
[21] = molecular target: Sigma non-opioid intracellular receptor 1 (Homo sapiens, UniProt Q99720); assay: Displacement of [3H]DTG from sigma-1 receptor (unknown origin) assessed as inhibition constant
Chain of Sigma non-opioid intracellular receptor 1 (Q99720 whole entry): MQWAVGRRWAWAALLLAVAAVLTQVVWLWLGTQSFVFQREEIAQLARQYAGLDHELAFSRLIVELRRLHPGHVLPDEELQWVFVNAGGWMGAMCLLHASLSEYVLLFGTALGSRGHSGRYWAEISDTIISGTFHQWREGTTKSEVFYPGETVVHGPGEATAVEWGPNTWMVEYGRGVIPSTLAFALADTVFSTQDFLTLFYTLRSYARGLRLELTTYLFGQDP

Chain of Protein cereblon/DNA damage-binding protein 1 (Homo sapiens) (Q16531 2-1140 partner limits assumed): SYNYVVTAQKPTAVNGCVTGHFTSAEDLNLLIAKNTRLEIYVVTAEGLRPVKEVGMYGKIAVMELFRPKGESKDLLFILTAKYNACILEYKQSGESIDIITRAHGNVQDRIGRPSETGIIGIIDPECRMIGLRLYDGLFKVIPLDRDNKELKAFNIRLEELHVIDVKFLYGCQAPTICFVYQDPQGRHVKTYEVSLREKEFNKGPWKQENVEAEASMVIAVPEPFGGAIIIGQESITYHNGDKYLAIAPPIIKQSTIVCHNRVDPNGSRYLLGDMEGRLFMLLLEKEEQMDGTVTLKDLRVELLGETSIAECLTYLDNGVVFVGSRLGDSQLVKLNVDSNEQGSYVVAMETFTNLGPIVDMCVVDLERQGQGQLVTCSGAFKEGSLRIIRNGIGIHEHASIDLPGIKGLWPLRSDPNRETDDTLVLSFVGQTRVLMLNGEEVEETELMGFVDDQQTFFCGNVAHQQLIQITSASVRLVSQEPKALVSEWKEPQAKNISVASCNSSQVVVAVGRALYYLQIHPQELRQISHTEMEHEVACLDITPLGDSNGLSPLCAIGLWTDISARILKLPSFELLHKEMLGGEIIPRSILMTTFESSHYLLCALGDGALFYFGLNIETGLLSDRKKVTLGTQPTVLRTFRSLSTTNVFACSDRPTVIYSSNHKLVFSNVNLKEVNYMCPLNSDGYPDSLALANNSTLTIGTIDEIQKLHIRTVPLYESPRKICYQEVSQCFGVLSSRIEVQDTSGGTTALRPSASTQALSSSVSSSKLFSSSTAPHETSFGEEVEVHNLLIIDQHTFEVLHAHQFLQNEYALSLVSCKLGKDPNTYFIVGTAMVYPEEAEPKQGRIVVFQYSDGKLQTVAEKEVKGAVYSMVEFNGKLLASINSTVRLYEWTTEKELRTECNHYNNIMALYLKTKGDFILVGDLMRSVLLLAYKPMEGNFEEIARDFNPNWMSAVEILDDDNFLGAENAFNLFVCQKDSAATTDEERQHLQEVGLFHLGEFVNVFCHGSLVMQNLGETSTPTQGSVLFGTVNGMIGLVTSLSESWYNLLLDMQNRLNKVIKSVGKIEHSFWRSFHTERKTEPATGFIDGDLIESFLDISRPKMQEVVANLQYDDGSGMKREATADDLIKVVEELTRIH
Chain of Protein cereblon/DNA damage-binding protein 1 (Homo sapiens) (Q96SW2 whole entry): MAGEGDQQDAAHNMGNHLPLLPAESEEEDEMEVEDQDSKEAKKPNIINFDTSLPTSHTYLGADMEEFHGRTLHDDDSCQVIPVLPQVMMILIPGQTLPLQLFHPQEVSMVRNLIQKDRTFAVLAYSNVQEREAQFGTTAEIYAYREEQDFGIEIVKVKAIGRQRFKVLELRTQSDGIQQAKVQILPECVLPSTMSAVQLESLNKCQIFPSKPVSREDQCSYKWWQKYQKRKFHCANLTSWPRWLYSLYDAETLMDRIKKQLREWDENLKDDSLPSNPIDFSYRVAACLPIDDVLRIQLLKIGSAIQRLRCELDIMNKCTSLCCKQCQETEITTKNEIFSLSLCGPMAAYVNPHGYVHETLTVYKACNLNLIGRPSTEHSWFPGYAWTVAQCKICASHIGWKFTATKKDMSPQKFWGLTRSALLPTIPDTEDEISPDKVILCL
Chain of Sigma intracellular receptor 2 (Q5BJF2 whole entry): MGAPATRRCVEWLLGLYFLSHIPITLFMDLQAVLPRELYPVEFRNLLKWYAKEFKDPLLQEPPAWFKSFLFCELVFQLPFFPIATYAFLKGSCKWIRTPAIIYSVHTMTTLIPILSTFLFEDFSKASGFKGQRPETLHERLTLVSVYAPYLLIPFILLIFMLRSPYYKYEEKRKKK
Chain of 5-hydroxytryptamine receptor 2A (P28223 whole entry): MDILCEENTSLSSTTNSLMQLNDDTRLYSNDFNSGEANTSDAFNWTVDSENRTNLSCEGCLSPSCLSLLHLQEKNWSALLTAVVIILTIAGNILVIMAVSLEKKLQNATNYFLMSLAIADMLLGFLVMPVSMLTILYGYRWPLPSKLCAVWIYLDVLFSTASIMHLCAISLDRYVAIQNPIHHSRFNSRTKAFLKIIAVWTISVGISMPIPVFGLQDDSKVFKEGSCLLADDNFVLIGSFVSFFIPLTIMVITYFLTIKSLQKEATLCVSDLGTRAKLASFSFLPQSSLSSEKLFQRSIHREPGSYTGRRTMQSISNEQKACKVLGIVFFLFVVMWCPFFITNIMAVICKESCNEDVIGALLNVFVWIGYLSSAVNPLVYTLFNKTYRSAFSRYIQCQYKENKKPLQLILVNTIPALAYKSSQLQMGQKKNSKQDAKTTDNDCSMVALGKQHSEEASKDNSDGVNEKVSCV
Chain of 5-hydroxytryptamine receptor 2B (P41595 whole entry): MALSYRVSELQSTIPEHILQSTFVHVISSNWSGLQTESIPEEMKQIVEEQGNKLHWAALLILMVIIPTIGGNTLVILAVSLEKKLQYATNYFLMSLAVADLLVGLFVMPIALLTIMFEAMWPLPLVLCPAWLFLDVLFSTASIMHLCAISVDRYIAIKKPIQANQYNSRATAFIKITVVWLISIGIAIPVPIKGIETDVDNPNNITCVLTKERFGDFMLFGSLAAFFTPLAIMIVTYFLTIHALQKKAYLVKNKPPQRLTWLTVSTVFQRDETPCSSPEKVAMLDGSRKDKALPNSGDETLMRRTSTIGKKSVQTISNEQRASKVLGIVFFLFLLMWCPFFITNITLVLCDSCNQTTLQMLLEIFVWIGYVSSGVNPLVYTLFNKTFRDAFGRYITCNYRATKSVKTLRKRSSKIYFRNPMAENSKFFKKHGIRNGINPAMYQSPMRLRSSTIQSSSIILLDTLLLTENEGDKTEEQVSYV

SMILES	viability at 10 µM (RAW264.7 [1]) [%]	viability at 1 µM (RAW264.7 [2]) [%]	Activity (RAW264.7 [3]) [%]	Activity (RAW264.7 [4]) [%]	Activity (RAW264.7 [5]) [%]	Activity (RAW264.7 [6]) [%]	Activity (RAW264.7 [7]) [%]	Activity (RAW264.7 [9])	viability at 30 µM (RAW264.7 [10]) [%]	Activity (RAW264.7 [12]) [%]	also measured
CN1CCC[C@@H](N2C(=O)c3cccc(N)c3C2=O)C1	100	100	95	101	100	108	–	–	–	–	–
Nc1cccc2c1C(=O)N([C@H]1CCCNC1)C2=O	102	104	83	–	94	–	94	Dose-Dependent Effect	103	110	Activity (RAW264.7 [8]): 94%; Activity (RAW264.7 [11]): 102%; Activity (RAW264.7 [13]): Dose-Dependent Effect
CC(C)N1CCC[C@H](N2C(=O)c3cccc(N)c3C2=O)C1	100	100	108	100	115	107	115	–	102	112	–
CS(=O)(=O)N1CCCC(N2C(=O)c3cccc(N)c3C2=O)C1 (stereo not given)	103	103	95	103	99	98	96	–	103	92	Activity (RAW264.7 [14]): 111%; Activity (RAW264.7 [8]): 116%; Activity [15]: Dose-Dependent Effect; pKi [16]: < 5.00; Activity (RAW264.7 [11]): 112%; pKi [17]: < 5.00; pKi [18]: < 5.00
CCN1CCCC(N2C(=O)c3cccc(N)c3C2=O)C1 (racemic)	99	101	90	101	112	115	102	–	97	101	–
Nc1cccc2c1C(=O)N([C@@H]1CCCNC1)C2=O	103	100	68	87	95	–	91	Dose-Dependent Effect	114	–	Activity (RAW264.7 [14]): 108%; Activity (RAW264.7 [8]): 60%; Activity (RAW264.7 [11]): 72%; Activity (RAW264.7 [13]): Dose-Dependent Effect
Nc1cccc2c1C(=O)N(C1CCCNC1)C2=O (racemic)	99	100	83	91	–	–	104	Dose-Dependent Effect	105	97	Activity (RAW264.7 [14]): 83%; Activity (RAW264.7 [8]): 82%; Activity [15]: Dose-Dependent Effect; pKi [16]: 6.25; Activity (RAW264.7 [11]): 88%; pKi [19]: 5.66
CC(C)N1CCCC(N2C(=O)c3cccc(N)c3C2=O)C1 (racemic)	100	105	123	100	109	100	103	–	95	109	–
CCN1CCC[C@H](N2C(=O)c3cccc(N)c3C2=O)C1	96	100	114	120	111	114	109	–	94	115	–
Nc1cccc2c1C(=O)N(C1CCC(=O)NC1=O)C2=O (stereo not given) [POMALIDOMIDE]	–	–	–	–	–	–	–	–	–	–	solubility [20]: 85 µM (≈ 23.2 µg/mL)
Nc1cccc2c1C(=O)N(C1CCCN(C(=O)C3CC3)C1)C2=O (stereo not given)	102	99	89	94	100	–	100	–	109	–	–
Nc1cccc2c1C(=O)N(C1CCCN(C(=O)C(F)(F)F)C1)C2=O (stereo not given)	103	103	100	90	–	–	94	–	99	92	–
CC(=O)N1CCCC(N2C(=O)c3cccc(N)c3C2=O)C1 (stereo not given)	103	102	81	88	86	95	86	Dose-Dependent Effect	101	95	pKi [21]: 5.62; Activity (RAW264.7 [14]): 111%; Activity (RAW264.7 [8]): 89%; Activity [15]: Dose-Dependent Effect; Activity (RAW264.7 [11]): 106%; pKi [17]: 5.28; pKi [19]: 5.28
CN1CCCC(N2C(=O)c3cccc(N)c3C2=O)C1 (racemic)	95	–	–	105	116	111	–	–	–	–	Activity [15]: Dose-Dependent Effect
CC(C)N1CCC[C@@H](N2C(=O)c3cccc(N)c3C2=O)C1	99	96	153	99	110	106	114	–	90	126	–
CCN1CCC[C@@H](N2C(=O)c3cccc(N)c3C2=O)C1	104	106	80	93	97	92	96	Dose-Dependent Effect	102	93	–
CN1CCC[C@H](N2C(=O)c3cccc(N)c3C2=O)C1	111	110	–	–	–	–	106	Dose-Dependent Effect	–	–	–
